Measured values published in patent publication US4593090A, “Novel nitrosourea compounds, method for preparing same, and pharmaceutical composition containing same” (Gogo Kimura, priority 1981, dated 1986).
Read-outs that look alike come from different tables or passages of the source.

Legend:
Leukemia L1210 [1] = assay: Activity against Leukemia L1210, oral, increase in life span of mice; type: in vivo, female mice (BDF1 family); conditions: for ED (maximum ILS) / ED30: Mus musculus, L1210; for ED (maximum ILS): read-out: O.D. (optimum dosage); for ED30: read-out: ILS30; for Survivors after 60 days / Max. ILS % / Therapeutic ratio TR: oral; for Survivors after 60 days: 6-membered group; for Max. ILS %: 60-day observation, versus control; for Therapeutic ratio TR: O.D./ILS30
Protocol: Tests were conducted in accordance with the method for measuring antitumor activity of National Cancer Center Tokyo (A, Hoshi et al, Farumashia 9 464 (1973)). Test compounds were each intraperitoneally (referred to as ip) or orally (referred to as op) administered once a day for 5 successive days to a 6-membered group of femal mice (BDF1 family, each weighing 20 to 23 g) 24 hours after 1×10^5 cells of Leukemia L1210 have been implantated into the abdominal cavities of the mice, and the effect was evaluated by comparing the survival days of treated groups with those of an untreated group of mice (control group) in 60-day observation. An increase percentage of life span (ILS%) was calculated from said average survival days compared with those of the control group. Further, therapeutic ratio (O.D./ILD30, referred to as T.R.) of each tested compound was calculated from the daily dosage of the compound necessary to increase said average survival days by 30% as compared with the control group (this dosage is referred to as ILS 30) and the daily dosage giving a maximum increase of life span to mice implantated with L1210 cells, namely an optimum dosage (referred to as O.D.). The results of five successive days intraperitoneal administrations of test compounds were shown in Tables I to III, and those of five successive oral administrations in Table IV.

[2] = Acute toxicity (LD50, Behrens-Karber method); type: in vivo, ICR mice; conditions: ip, mortality during 30 days; for LD50 at 720 h: mouse, in vivo
Protocol: Test compounds, dissolved or suspended in 0.5% aqueous CMC, were each intraperitoneally administered to ICR mice in a dose of 0.1 ml per 10 g body weight. LD50 (mg/kg) value of each test compound was calculated from the mortality of mice during 30 days by the Behrens-Karber method.

Ehrlich acites carcinoma = assay: Growth-inhibiting effect against Ehrlich acites carcinoma; type: in vivo, male mice; conditions: 5 days; for response vs control in vivo at 25 mg/kg / response vs control in vivo at 100 mg/kg / response vs control in vivo at 3.2 mg/kg / response vs control in vivo at 12.5 mg/kg: Mus musculus, Ehrlich, 120 h; for response vs control in vivo at 3.2 mg/kg: 3.2 mg/kg/day ip; for response vs control in vivo at 12.5 mg/kg: 12.5 mg/kg/day ip
Method in brief: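 Activity graded from T/C% of total packed ascites cell volume on day 7 (treated vs untreated): - 100-66, + 65-41, ++ 40-11, +++ 10-0. Groups of 6 male mice bore 1×10^7 i.p.-implanted cells and received compound (1% Nikkol HCO-60) i.p. daily for 5 days from 24 hrs after implantation.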

Leukemia L1210 [3] = assay: Activity against Leukemia L1210, intraperitoneal, increase in life span of mice; type: in vivo, female mice (BDF1 family); conditions: for ED (maximum ILS) / ED30: Mus musculus, L1210, ip; for ED (maximum ILS): read-out: O.D. (optimum dosage); for ED30: read-out: ILS30; for Survivors after 60 days / Max. ILS % / Therapeutic ratio TR: ip; for Survivors after 60 days: 6-membered group; for Max. ILS %: 60-day observation, versus control; for Therapeutic ratio TR: O.D./ILS30
Method in brief: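 L1210 cells (1×10^5) into abdominal cavity of female BDF1 mice, 20–23 g, n=6/group. Dosing 24 h post-implant, ip or po, qd ×5. 60-day observation; ILS% = mean survival vs untreated control; T.R. = O.D./ILS 30.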

[4] = oral once a day for 5 successive days, daily dosage giving maximum increase of life span
[5] = oral once a day for 5 successive days, daily dosage increasing average survival days by 30%
[6] = 25 mg/kg/day ip, read-out: Activity
[7] = 25 mg/kg/day ip, read-out: T/C %
[8] = 100 mg/kg/day ip, read-out: Activity
[9] = 100 mg/kg/day ip, read-out: T/C %
[10] = ip once a day for 5 successive days, daily dosage giving maximum increase of life span
[11] = ip once a day for 5 successive days, daily dosage increasing average survival days by 30%

| Molecule | ED (maximum ILS) (Leukemia L1210 [1]; [4]) [mg/kg] | ED30 (Leukemia L1210 [1]; [5]) [mg/kg] | Survivors after 60 days (Leukemia L1210 [1]) | Max. ILS % (Leukemia L1210 [1]) [%] | Therapeutic ratio TR (Leukemia L1210 [1]) | LD50 at 720 h [2] [mg/kg] | response vs control in vivo at 25 mg/kg (Ehrlich acites carcinoma; [6]) [%] | response vs control in vivo at 25 mg/kg (Ehrlich acites carcinoma; [7]) [%] | response vs control in vivo at 100 mg/kg (Ehrlich acites carcinoma; [8]) [%] | response vs control in vivo at 100 mg/kg (Ehrlich acites carcinoma; [9]) [%] | ED (maximum ILS) (Leukemia L1210 [3]; [10]) [mg/kg] | ED30 (Leukemia L1210 [3]; [11]) [mg/kg] | Survivors after 60 days (Leukemia L1210 [3]) | Max. ILS % (Leukemia L1210 [3]) [%] | Therapeutic ratio TR (Leukemia L1210 [3]) | further results |
| --- | --- | --- | --- | --- | --- | --- | --- | --- | --- | --- | --- | --- | --- | --- | --- | --- |
| COCC(C)N(C[C@H]1O[C@H](OC2CCCCC2)[C@H](O)[C@@H](O)[C@@H]1O)C(=O)N(CCCl)N=O (stereo partly drawn) [Compound 42, 3-(1-methyl-2-methoxyethyl)-3-(cyclohexyl α-D-glucopyranose-6-yl)-1-(2-chloroethyl)-1-nitrosourea] | 230 | 7.88 | 6/6 | > 700 | 29.2 | 595 | 0 to 10 | 0 | 0 to 10 | 0 | 180 | 2.7 | 6/6 | > 700 | 66.6 | – |
| CCOCCO[C@H]1O[C@H](CN(CC(C)C)C(=O)N(CCCl)N=O)[C@H](O)[C@H](O)[C@H]1O [Compound 114, 3-isobutyl-3-(2-ethoxyethyl α-D-galactopyranose-6-yl)-1-(2-chloroethyl)-1-nitrosourea] | 210 | 9.05 | 6/6 | > 700 | 23.2 | 580 | 0 to 10 | 0 | 0 to 10 | 0 | 180 | 2.86 | 6/6 | > 700 | 62.9 | – |
| CC(C)CN(C[C@H]1O[C@H](OCC2CCCO2)[C@@H](O)[C@@H](O)[C@@H]1O)C(=O)N(CCCl)N=O (stereo partly drawn) [Compound 136, 3-(isobuty)-3-(tetrahydrofurfuryl α-D-mannopyranose-6-yl)-1-(2-chloroethyl)-1-nitrosourea] | 240 | 10.1 | 5/6 | > 625 | 23.8 | 600 | 0 to 10 | 0 | 0 to 10 | 0 | 200 | 2.94 | 6/6 | > 700 | 68.0 | – |
| O=NN(CCCl)C(=O)N(C1CCCCC1)C1C(OCC2CCCO2)OC(CO)C(O)C1O [Compound 75, 3-cyclohexyl-3-(tetrahydrofurfuryl α-D-glucopyranose-2-yl)-1-(2-chloroethyl)-1-nitrosourea] | 200 | 11.6 | 4/6 | > 450 | 17.2 | 505 | 0 to 10 | 0 | 0 to 10 | 0 | 160 | 3.67 | 5/6 | > 625 | 43.6 | – |
| O=NN(CCCl)C(=O)N[C@@H]1O[C@H](CO)[C@@H](O)[C@H](O)[C@H]1O [GANU, 3-(β-D-glucopyranosyl)-1-(2-chloroethyl)-1-nitrosourea, reference compound] | 6.35 | 2.5 | 0/6 | 94 | 2.54 | 35 | – | – | – | – | 6.2 | 0.45 | 4/6 | > 425 | 13.8 | Activity (toxicity in words) (Ehrlich acites carcinoma; 25.0 mg/kg/day ip): Toxic (6/6); response vs control in vivo at 3.2 mg/kg (Ehrlich acites carcinoma; read-out: Activity): 0 to 10%; response vs control in vivo at 3.2 mg/kg (Ehrlich acites carcinoma; read-out: T/C %): 0%; response vs control in vivo at 12.5 mg/kg (Ehrlich acites carcinoma; read-out: Activity): 0 to 10%; response vs control in vivo at 12.5 mg/kg (Ehrlich acites carcinoma; read-out: T/C %): 0% |
| 3-tert-butyl-3-(methoxy-2-n-butyl β-D-glucopyranose-6-yl)-1-(2-chloroethyl)-1-nitrosourea [Compound 178] | – | – | 5/6 | > 625 | 22.4 | – | – | – | – | – | – | – | 6/6 | > 700 | 66.5 | O.D. (optimum dosage) (Leukemia L1210 [1]; [4]): 210 mg/kg; ILS30 (Leukemia L1210 [1]; [5]): 9.38 mg/kg; LD50 [2]: 570 mg/kg; Activity (Ehrlich acites carcinoma; 25 mg/kg/day ip): +++ (T/C% 10-0); T/C % (Ehrlich acites carcinoma; 25 mg/kg/day ip): 0%; Activity (Ehrlich acites carcinoma; 100 mg/kg/day ip): +++ (T/C% 10-0); T/C % (Ehrlich acites carcinoma; 100 mg/kg/day ip): 0%; O.D. (optimum dosage) (Leukemia L1210 [3]; [10]): 180 mg/kg; ILS30 (Leukemia L1210 [3]; [11]): 2.71 mg/kg |
| COCCN(C[C@H]1O[C@H](OC2CCCCC2)[C@H](O)[C@@H](O)[C@H]1O)C(=O)N(CCCl)N=O [Compound 101, 3-(2-methoxyethyl)-3-(cyclohexyl α-D-galactopyranose-6-yl)-1-(2-chloroethyl)-1-nitrosourea] | 250 | 11.2 | 4/6 | > 460 | 22.3 | 660 | 0 to 10 | 0 | 0 to 10 | 0 | 200 | 3.66 | 6/6 | > 700 | 54.6 | – |
| CCCCO[C@H]1O[C@H](CN(CC(C)OC)C(=O)N(CCCl)N=O)[C@@H](O)[C@H](O)[C@H]1O (stereo partly drawn) [Compound 11, 3-(2-methoxy-n-propyl)-3-(n-butyl α-D-glucopyranose-6-yl)-1-(2-chloroethyl)-1-nitrosourea] | 220 | 9.57 | 6/6 | > 700 | 23.0 | 495 | 0 to 10 | 0 | 0 to 10 | 0 | 170 | 2.9 | 6/6 | > 700 | 58.6 | – |
| CC(C)CN(C[C@H]1O[C@@H](OCC2CCCO2)[C@H](O)[C@@H]1O)C(=O)N(CCCl)N=O (stereo partly drawn) [Compound 170, 3-isobutyl-3-(tetrahydrofurfuryl β-D-ribofuranose-5-yl)-1-(2-chloroethyl)-1-nitrosourea] | 190 | 13.4 | 4/6 | > 440 | 14.2 | 505 | 0 to 10 | 0 | 0 to 10 | 0 | 160 | 3 | 5/6 | > 620 | 53.3 | – |
